From patent US20230097866A1, “BACTERIAL TOPOISOMERASE INHIBITORS DERIVED FROM ISOMANNIDE” (Ohio State Innovation Foundation, priority 2020, published 2023) come the findings set out here.

In test [1] the test system is H37Rv (rpoB^S450L). Format: cell-based, Mycobacterium tuberculosis.
For test [2], the system named is H37Rv (katG^del). Kind of test: microbe, parasite or virus in culture. Format: cell-based. To be noted: Mycobacterium tuberculosis, microbroth dilution.
Test [3] deals with H37Rv (gyrA^D94K). Format: cell-based, Mycobacterium tuberculosis.

≈ marks a conversion by molar mass, not a printed value.

In the case of `COc1ccc2ncc(F)c(CC[C@@]3(O)CO[C@@H]4[C@@H](NCc5ccc(Cl)c(Cl)c5)CO[C@@H]43)c2n1` [Compound 26, (3R,3aS,6S,6aR)-6-((3,4-dichlorobenzyl)amino)-3-(2-(3-fluoro-6-methoxy-1,5-napkthyridin-4-yl)ethyl)hexahydrofuro[3,2-b]-furan-3-ol], the “MIC H37Rv (rpoB^S450L)” value in test [1] amounted to 1 µg/mL (≈ 1.97 µM). For the same molecule, the MIC in test [2] was found to be 1 µg/mL (≈ 1.97 µM). Besides, the “MIC H37Rv (gyrA^D94K)” value in test [3] stood at 2 µg/mL (≈ 3.93 µM).

`COc1ccc2ncc(F)c(CC[C@@]3(O)CO[C@@H]4[C@@H](NCc5ccc(C)cc5)CO[C@@H]43)c2n1` [Compound 25, (3R,3aS,6S,6aR)-3-(2-(3-fluora-6-methoxy-1,5-naphthyridin-4-yl)ethyl)-6-((4-methyllbenzyl)amino)hexahydrofuro[3,2-b]furan-3-ol]: the “MIC H37Rv (rpoB^S450L)” value in test [1] came out at 4 µg/mL (≈ 8.82 µM). For the same molecule, the MIC in test [2] came to 4 µg/mL (≈ 8.82 µM). Also, the “MIC H37Rv (gyrA^D94K)” value in test [3] turned out to be 16 µg/mL (≈ 35.3 µM).
